2 molecules from patent publication US12508280B2, “Formulations for improving gut health” (DSM IP ASSETS B.V., priority 2018, dated 2025) can be followed below.

What all share (format): cell-based, human
Assay [1] has as its system colonic microbiota (fecal inoculum of two healthy adults). Nature of the assay: Microbiome diversity, alpha and beta (second set). As to the method: (§1) In a second set of in vitro experiments, at the start of the short-term colonic incubations, the test ingredients were added to nutritional medium containing basal nutrients present in the colon (e.g. host-derived glycans such as mucin). Three doses were tested per product. The nutritional medium used for this particular project was again supplemented with NaCl, MgSO4, CaCl2, hemin and bile salts, and with carbon sources glucose, starch and cellobiose. A blank, containing the same nutritional medium as that used for the product incubations, but without product addition, was included for each donor. In doing so, an assessment can be made of the background activity of the bacterial community, which results from fermentation of compounds in the nutritional medium. As a source of the colonic microbiota a fecal inoculum of two healthy adults was added. Incubations were performed for 48 h at 37′C, under shaking (90 rpm) and anaerobic conditions and protected from light. […] For the second set of in vitro experiments, two techniques were combined according to Vandeputte et al.

Assay [2] has the same test system. The experiment in a line: 16S-targeted Illumina sequencing with flow cytometry, taxa abundance (second set). The settings on record: 24 h fermentation. As to the method:
as §1
(In general: A flow cytometer gives signals particle by particle.)

Assay [3] relates to fecal inoculum of two healthy adults. Nature of the assay: Short-term colonic incubations, SCFA production (second set). The settings on record: 48 h fermentation. As to the method: In a second set of in vitro experiments, at the start of the short-term colonic incubations, the test ingredients were added to nutritional medium containing basal nutrients present in the colon (e.g. host-derived glycans such as mucin). Three doses were tested per product. The nutritional medium used for this particular project was again supplemented with NaCl, MgSO4, CaCl2, hemin and bile salts, and with carbon sources glucose, starch and cellobiose. A blank, containing the same nutritional medium as that used for the product incubations, but without product addition, was included for each donor. In doing so, an assessment can be made of the background activity of the bacterial community, which results from fermentation of compounds in the nutritional medium. As a source of the colonic microbiota a fecal inoculum of two healthy adults was added. Incubations were performed for 48 h at 37'C, under shaking (90 rpm) and anaerobic conditions and protected from light. […] Each compound was tested in three different concentrations; an overview is given in Table 2, below: Short chain fatty acids (SCFA) are an assessment of the microbial carbohydrate metabolism (acetate, propionate and butyrate) or protein metabolism (branched SCFA) and can be compared to typical fermentation patterns for normal GI microbiota. Samples for SCFA analysis were analyzed after 0, 6, 24 and 48 h of incubation for both set of in vitro experiments, above. SCFA were extracted from the samples with diethyl ether, after the addition of 2-methyl hexanoic acid as an internal standard. […], Belgium), a flame ionization detector and a split injector. The injection volume was […] and the temperature profile was set from 110 to 160° C., with a temperature increase of 6° C. min-1. […] The production of unbranched and branched SCFA was calculated by summing the molar concentrations of acetate, propionate, butyrate, valerate and caproate, and summing isobutyrate, isovalerate and isocaproate molar concentrations, respectively. The total SCFA production was defined as the sum of unbranched and branched SCFA.

For the molecule `CC1=C(/C=C/C(C)=C/C=C/C(C)=C/C=C/C=C(C)/C=C/C=C(C)/C=C/C2=C(C)CCCC2(C)C)C(C)(C)CCC1` [β-carotene], in assay [1] (0.2× dose, donor D), the “beta-diversity (Bray-Curtis distance to control)” value (“beta-diversity” below) is reported as “increases beta-diversity”. The “beta-diversity” value in assay [1] (1× dose, both donors) is “increases beta-diversity”. Also, the “beta-diversity” value in assay [1] (1× dose, donor D) is recorded as “increases beta-diversity”. For the same molecule, in assay [1] (5× dose, both donors), the “beta-diversity” value was “increases beta-diversity”. Besides, in assay [2] (1× dose, both donors), the Bifidobacteriaceae relative abundance result was “increase Bifidobacteriaceae relative abundance”. Besides, in assay [2] (1× dose, donor C), the Clostridiaceae relative abundance entry is reported as “increase Clostridiaceae relative abundance” and the Prevotellaceae relative abundance entry is reported as “increase Prevotellaceae relative abundance”. In addition, in assay [2] (1× dose, donor D), the Coriobacteriaceae relative abundance result is “increase Coriobacteriaceae relative abundance”, the “Faecalibacterium prausnitzii relative abundance” value is on record as “increase Faecalibacterium prausnitzii relative abundance” and the Veillonellaceae relative abundance entry was “increase Veillonellaceae relative abundance”. In assay [2] (5× dose, both donors), the Akkermansiaceae relative abundance result is reported as “increase Akkermansiaceae relative abundance”, the Bifidobacteriaceae relative abundance entry was “increase Bifidobacteriaceae relative abundance”, the Desulfovibrionaceae relative abundance entry is given as “decrease Desulfovibrionaceae relative abundance” and the Eggerthellaceae relative abundance entry is on record as “increase Eggerthellaceae relative abundance”. Besides, in assay [2] (5× dose, donor D), the Barnesiellaceae relative abundance result is on record as “increase Barnesiellaceae relative abundance”, the Coriobacteriaceae relative abundance result is “increase Coriobacteriaceae relative abundance”, the “Faecalibacterium prausnitzii relative abundance” value is reported as “increase Faecalibacterium prausnitzii relative abundance” and the Veillonellaceae relative abundance result is “increase Veillonellaceae relative abundance”. For the same molecule, the butyrate production entry in assay [3] (0.2× dose, donor C) is recorded as “increase butyrate production”. Besides, in assay [3] (1× dose, both donors), the acetate production entry was “increase acetate production”, the butyrate production result was “increase butyrate production” and the “total SCFA production” value is reported as “increase total SCFA production”. Moreover, the propionate production entry in assay [3] (1× dose, donor C) is listed as “increase propionate production”. Besides, in assay [3] (5× dose, both donors), the acetate production entry is reported as “increase acetate production” and the “total SCFA production” value is given as “increase total SCFA production”. The propionate production result in assay [3] (5× dose, donor C) is “increase propionate production”.
Calcium D-Pantothenate [vitamin B5]: in assay [1] (0.2× dose, donor D), the “alpha-diversity (Shannon diversity index)” value is on record as “increases alpha-diversity”. Besides, the “beta-diversity” value in assay [1] (5× dose, both donors) is “increases beta-diversity”. Also, the “alpha-diversity (Shannon diversity index)” value in assay [1] (5× dose, donor D) is given as “increases alpha-diversity”. Besides, in assay [2] (0.2× dose, donor D), the Akkermansiaceae relative abundance entry is reported as “increase Akkermansiaceae relative abundance”, the “Faecalibacterium prausnitzii relative abundance” value is “increase Faecalibacterium prausnitzii relative abundance” and the Veillonellaceae relative abundance entry is reported as “increase Veillonellaceae relative abundance”. For the same molecule, in assay [2] (1× dose, donor D), the Erysipelotrichaceae relative abundance entry is recorded as “increase Erysipelotrichaceae relative abundance” and the “Faecalibacterium prausnitzii relative abundance” value is “increase Faecalibacterium prausnitzii relative abundance”. For the same molecule, in assay [2] (5× dose, both donors), the Bifidobacteriaceae relative abundance entry is “increase Bifidobacteriaceae relative abundance”. Also, in assay [2] (5× dose, donor C), the Desulfovibrionaceae relative abundance entry is “decrease Desulfovibrionaceae relative abundance”. Moreover, the “Faecalibacterium prausnitzii relative abundance” value in assay [2] (5× dose, donor D) is listed as “increase Faecalibacterium prausnitzii relative abundance”. Further, the propionate production result in assay [3] (0.2× dose, donor C) is on record as “increase propionate production”. Further, in assay [3] (5× dose, both donors), the “branched SCFA production” value is recorded as “decrease branched SCFA production”.
